The source of these data is US11440916B2, “Selective A2A receptor antagonist” (InxMed (Nanjing) Co., Ltd., priority 2018, dated 2022).

“Also recorded” adds a separate entry of the source. Where two headings read alike, the source gives them in different places.

The nature of series [1]: Oral bioavailability, AUC, half-life, plasma, brain and liver concentration in mice at 2 mg/kg. The following applies: for Plasma concentration 4 and 6 hours after oral administration: time point not stated; for bioavailability / AUC(0-t) / half-life: plasma; for bioavailability: read-out: Absolute bioavailability (oral). It is filed as in vivo. The procedure: HZ10126 and other test compounds were each administered to mice at a dose of 2 mg/kg, and the bioavailability, AUC, plasma concentration, level of brain penetration (i.e. brain concentration) and liver concentration after the oral administration were measured and shown in Table 1. The measurement methods are well known to a person skilled in the art.

For series [2] the following is noted: cited from earlier work.
The target of series [3] is A2A receptor (Homo sapiens, UniProt P29274). The experiment in a line: biochemical.
Procedure: The mixture in the Opti-plate was transferred to the [sequence]-96 GF/B filter plate, which was then washed 9 times with Washing Buffer (500 μl/well), and incubated at 55° C. for 10 min. […] A series of concentrations were established for each compound and the CPM values were plotted versus the concentrations. IC50 values were calculated from the curve obtained.
For series [4] the following is noted: reference [2]; cited from earlier work.
Series [5] deals with B16-F10 cells. Description: Mouse melanoma lung metastasis model, oral HZ10126. It is filed as in vivo, mice. The procedure: 4.1 Establishment of a Mouse Melanoma Model (6×10^4 Cells/Mouse)
5-week old C58BL/6N mice, half male and half female, were divided into 4 groups, with 10 mice per group. B16-F10 cells were digested and centrifuged, re-suspended in physiological saline and washed once. The cells were counted and adjusted to a cell density of 30×10^4 cells/ml in a volume of 12 ml. 200 μl of the cell suspension was injected into the tail vain of each mouse (Day 1), and the body weight of mice was recorded once every 3 days. On Day 18, the mice were all sacrificed, lungs were removed, and metastasis tumors were counted and weighed. Livers, kidneys and spleens were taken for HE staining to evaluate the toxicity of the drug. The lungs were subjected to immunohistochemistry and stained for CD11b, F4/80 and CD8.
Test drug: HZ10126. 2 mg HZ10126 was dissolved in 80 μl DMSO first, and the resultant solution, while being vortexed, was added dropwise to 10 ml 50% PEG-400 to prepare a 0.2 mg/ml solution.
For the test groups, the HZ10126 solution was intragastrically administered at a dose of 2 mg HZ10126/kg/day. For the control group, an equivalent volume of 50% PGE-400 was administered. From the day of injection of cells, the drug was administered once a day for 18 consecutive days.

[6] abbreviates: 2 mg/kg oral, 1 h post administration.
The mark [7] stands for this setting: 2 mg/kg, 6 h after oral administration.
Where [8] appears, read: 2 mg/kg, 4 h after oral administration.

Consider `Nc1nc2c(cnn2CCc2ccccc2)c2nc(-c3ccco3)nn12` [SCH 58261], for which, in series [1] (2 mg/kg), the “Plasma concentration 4 and 6 hours after oral administration” value (“Plasma concentration 4 and 6 hours” below) is on record as “No significant meaningful concentration”. Further, the bioavailability – broadly, dose-corrected exposure relative to a reference, in per cent – in series [1] (mouse, 2 mg/kg, oral) is ~0%. The half-life (as a rule, the time in which the quantity being followed falls by half) in series [2] (after intravenous injection, reference [1]) is given as “*26.7 min”. In addition, the Oral bioavailability result in series [2] (after oral administration) is reported as “barely any oral bioavailability; also recorded: barely has any bioavailability”. Further, in series [2] (intraperitoneal injection), the Brain concentration entry was “very low brain concentration” and the Plasma concentration result was “relatively high plasma concentration”. The “Half-life in the blood” value in series [2] (rats, after intravenous injection) was 0.445 h.

Consider `Nc1nc2c(cnn2CCc2ccc(OCC(=O)O)cc2)c2nc(-c3ccco3)nn12` [HZ10136], for which the “Liver concentration/Plasma concentration” value in series [1] (setting [6]) is listed as 1 h post administration: 2.3. Moreover, the Brain penetration result in series [1] (2 mg/kg, oral) is on record as “No penetration”. Moreover, the “Plasma concentration 4 and 6 hours” value in series [1] (2 mg/kg) was 2.57 ± 0.10 ng/mL. Further, in series [1] (mouse, 2 mg/kg, oral), the AUC(0-t) (commonly the area under the concentration-time curve up to a stated or last time point) stood at 7.42 ± 5.66 ng·h/mL, the half-life is < 0.5 h and the bioavailability worked out at 0.73%. In addition, the IC50 (commonly the concentration that inhibits the measured activity by half) in series [3] was 1.1 nM.

Regarding `COCCOc1ccc(N2CCN(CCn3ncc4c3nc(N)n3nc(-c5ccco5)nc43)CC2)cc1` [Preladenant, reference compound], in series [1] (setting [7]), the “Plasma concentration after oral administration” value was 6 h: 6.20 ± 7.27 ng/ml. The same molecule gave an exposure AUC(0-t) in series [1] (mouse, 2 mg/kg, oral) of 285 ± 113 ng·h/mL. The half-life in series [4] is on record as 2.1 h. Also, the IC50 in series [3] came to 2.5 nM.

For the molecule `CCOC(=O)c1ccc(CCn2ncc3c2nc(N)n2nc(-c4ccco4)nc32)cc1` [HZ10328], the “Plasma concentration after oral administration” value in series [1] (setting [8]) is 4 h: 24.0 ± 8.02 ng/ml. Besides, in series [1] (mouse, 2 mg/kg, oral), the AUC(0-t) came to 233 ± 73.5 ng·h/mL and the half-life is 3.03 h.

For `Nc1nc2c(cnn2CCc2ccc(CO)cc2)c2nc(-c3ccco3)nn12` [HZ10330], the “Absolute bioavailability (oral)” value in series [1] (2 mg/kg, oral) is recorded as “does not lead to detectable bioavailability”. Also, in series [1] (2 mg/kg), the “Plasma concentration 4 and 6 hours” value is given as “Not detected from 1 h after oral administration”. Besides, in series [1] (mouse, 2 mg/kg, oral), the bioavailability was determined as 0%.

As for `Nc1nc2c(cnn2CCN2CCN(c3ccc(C(=O)O)cc3)CC2)c2nc(-c3ccco3)nn12` [HZ10168], the “Plasma concentration 4 and 6 hours” value in series [1] (2 mg/kg) is 4.50 ± 2.53 ng/mL. In addition, the AUC(0-t) in series [1] (mouse, 2 mg/kg, oral) is 93.9 ± 40.8 ng·h/mL. For the same molecule, the IC50 in series [3] was determined as 1.2 nM.

Take `Nc1nc2c(cnn2CCc2ccc(C(=O)O)cc2)c2nc(-c3ccco3)nn12` [HZ10126]: the “Liver concentration/Plasma concentration” value in series [1] (setting [6]) stood at 7. In addition, the “Liver concentration/Plasma concentration” value in series [1] (2 mg/kg oral, 6 h post administration) came out at 24. Further, in series [1] (setting [8]), the “Plasma concentration after oral administration” value stood at 52.0 ± 7.03 ng/mL. For the same molecule, in series [1] (setting [7]), the “Plasma concentration after oral administration” value came out at 28.9 ± 9.79 ng/mL. For the same molecule, in series [1] (2 mg/kg, oral), the Brain penetration result was “no detectable brain concentration; also recorded: No penetration”. The Kp – broadly, the ratio of the level in a tissue or fluid to that in plasma or blood – at 1 h in series [1] (mouse, liver/plasma, 2 mg/kg oral, 1 h post administration) is 7. Also, the partition ratio (Kp) at 6 h in series [1] (mouse, liver/plasma, 2 mg/kg oral, 6 h post administration) came out at 24. In series [1] (mouse, 2 mg/kg, oral), the exposure AUC(0-t) was 371 ± 62.9 ng·h/mL, the half-life was in the range of 4 to 5 h and the bioavailability was found to be 13.4%. The “Metastases on the lungs versus control group” value in series [5] (Day 18, 2 mg/kg/day intragastric, once a day for 18 days) is on record as “obviously less than those in the control group”. The “Inhibitory effect on tumor / tumor metastasis” value in series [5] (mice, oral 2 mg/kg/day) is on record as “excellent effect of suppressing tumor metastasis; also recorded: excellent inhibitory effect”. The concentration for half-maximal inhibition (IC50) in series [3] came out at 1.8 nM.
